From patent publication US20150011566A1, “N-PHENYLPIPERAZINE DERIVATIVES THAT ARE ANTAGONISTS OF A1A, A1D ADRENOCEPTORS AND 5-HT1A RECEPTORS FOR THE TREATMENT OF BENIGN PROSTATE HYPERPLASIA, PHARMACEUTICAL COMPOSITIONS CONTAINING THE SAME” (UNIVERSIDADE FEDERAL DO RIO DE JANEIRO-UFRJ, priority 2012, published 2015)
Read-outs that look alike come from different tables or passages of the source. Marks after values point to notes of the source that are not given here.

Tests used:
α2A receptors = molecular target: T1, α2A receptors (Rattus norvegicus, UniProt P22909); assay: Binding of [3H]RX821002 to α2A receptors (rat cortex membranes)
T1 construct: from tissue; host or cells: rat cortex membranes
T1 sequence (P22909 1-465): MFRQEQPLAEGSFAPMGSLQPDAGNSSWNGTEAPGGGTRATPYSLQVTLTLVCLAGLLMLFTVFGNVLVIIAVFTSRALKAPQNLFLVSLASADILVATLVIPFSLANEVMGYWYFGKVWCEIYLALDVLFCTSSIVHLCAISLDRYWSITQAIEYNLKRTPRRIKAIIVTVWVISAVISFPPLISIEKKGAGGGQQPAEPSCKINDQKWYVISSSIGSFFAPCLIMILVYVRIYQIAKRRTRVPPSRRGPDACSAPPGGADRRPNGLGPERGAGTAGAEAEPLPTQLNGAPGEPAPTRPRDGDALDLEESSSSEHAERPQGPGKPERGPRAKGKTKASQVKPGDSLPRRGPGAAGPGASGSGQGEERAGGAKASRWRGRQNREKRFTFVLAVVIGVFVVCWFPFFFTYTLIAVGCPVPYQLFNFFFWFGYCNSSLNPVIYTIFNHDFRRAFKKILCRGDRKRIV
Protocol: Membrane preparations of rat cortex as described previously in the literature were performed. The organs were homogenized in a Potter with the aid of a motor unit (Fisatom) and Teflon piston in the proportion of 20 parts of 50 mM Tris HCl (pH 7.4 at 4° C.) for one piece of material, three times for 30 seconds each time, at intervals the solution was allowed to stand on ice for 1 minute.
Then it was performed a centrifugation at 900×g for 10 minutes at 4° C. It was obtained a […] which was resuspended in solution cold 50 mM Tris-HCl (pH 7.4) and the same procedure was performed once more. The supernatant was then centrifuged at 48,000×g for 10 minutes at 4° C. yielding a pellet which was resuspended at a ratio of 20 parts of 50 mM Tris HCl (pH 7.4 at 4° C.) for one piece of material, and incubated at 37° C. for 10 minutes in order to remove the endogenous neurotransmitters. Finally, centrifugation two times more at 48,000×g was performed for 10 minutes at 4° C., and then the final pellet was resuspended in a solution of 50 mM Tris-HCl (pH 7.4).
Binding assays for the α2A receptor were performed as described previously in the literature and previously standardized in the laboratory by saturation experiments. […] Incubate for 60 minutes at 30° C., 150 membrane preparation of rat cortex contained 50 μL was suspended in 50 mM Tris-HCl into tubes containing 400 μL intermediate solution ([3H] RX821002 1.25 nM, 50 mM Tris (pH 7.4 at 37° C.) and 50 μL of different concentrations of LDT's (final concentration 10^−7-3×10^−5 M to LDT65-68) or 50 μL of 50 mM Tris-HCl pH 7.4 at 37° C. (solvent for dilution of the LDT's), to determine the total binding or 50 μL nonradioactive bitartrate adrenaline at 100 μM for determining the non-specific bounding (final volume 500 μL). Assays were performed in triplicate.
After the incubation period, the reaction was stopped by adding 4 mL ice cold solution containing 5 mM Tris (pH 7.4), followed by vacuum filtration on glass fiber filter (GMF 3, Filtrak®) previously soaked with solution 0.5% polyethylenoimine. The filters were washed three times with 4 mL of ice-cold solution containing 5 mM Tris (pH 7.4) under vacuum to remove all free radioligand. Then the filters were dried and placed in vials containing 5 ml scintillation fluid (composition: 4% PPO, 0.1% POPOP w/v in toluene). The radioactivity retained on the filters was then determined in a liquid scintillation counter (Packard Tri-Carb 1600 TR). Specific binding of [3H]RX821002 to a2A receptors was defined as the difference between total binding and non-specific binding. To these receptors were determined and IC50 and Ki parameters.

α1D receptors = molecular target: T2, α1D receptors (Homo sapiens, UniProt P25100); assay: Cell proliferation in vitro, DU-145 cells stimulated with phenylephrine (MTT); type: cell-based; details: for Proliferation percentage in relation to basel (100%) in the presence of LDT's, α1D: 48 h; for inhibition of the effect of the α1D receptors stimulus on proliferation: LDT3 50 nM, LDT66 20 nM
T2 construct: endogenous in cells; host or cells: DU-145
T2 sequence (P25100 1-572): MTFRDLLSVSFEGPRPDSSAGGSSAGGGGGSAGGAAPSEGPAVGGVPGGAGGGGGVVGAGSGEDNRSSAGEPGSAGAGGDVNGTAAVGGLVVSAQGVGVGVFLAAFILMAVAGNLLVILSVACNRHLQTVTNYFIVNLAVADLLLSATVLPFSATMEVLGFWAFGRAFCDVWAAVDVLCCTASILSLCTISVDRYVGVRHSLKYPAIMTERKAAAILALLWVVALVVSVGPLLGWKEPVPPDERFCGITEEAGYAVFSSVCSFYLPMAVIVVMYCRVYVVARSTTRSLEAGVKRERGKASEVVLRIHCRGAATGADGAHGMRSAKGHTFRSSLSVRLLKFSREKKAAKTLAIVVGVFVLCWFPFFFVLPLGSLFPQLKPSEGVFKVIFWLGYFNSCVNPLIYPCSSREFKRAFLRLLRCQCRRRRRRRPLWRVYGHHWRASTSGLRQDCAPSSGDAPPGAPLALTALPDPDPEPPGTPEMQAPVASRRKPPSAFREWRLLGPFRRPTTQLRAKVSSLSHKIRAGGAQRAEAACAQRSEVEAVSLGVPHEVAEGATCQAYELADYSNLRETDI
Protocol: Human prostate cancer cells (DU-145) were cultured in medium (RPMI 1640) until confluence. Then the cells were dissociated, plated (5×10^3 cells/well) and maintained in medium free of fetal bovine serum for 24 hours. […] Cell proliferation was assessed by using the MTT technique (MOSMANN, T. Immunol Methods. 16; 65 (1-2):55-63, 1983).

D2-Like receptors = D2-Like receptors (Rattus norvegicus, UniProt P61169); assay: D2-like receptors binding assay, [3H]-YM 09151-2 (rat striatal membranes); details: Table 15; for Ki: Cheng-Prusoff
Protocol: Briefly, organs were homogenized for 30 seconds three times in Fisatom in 50 mM Tris-HCl, MgCl2 8 mM, 5 mM EDTA (pH 7.4 at 4° C.) and then centrifuged at 48,000×gav (20 minutes 4° C.). The pellet was resuspended in 50 mM Tris-HCl, 8 mM MgCl2, 5 mM EDTA (pH 7.4 at 37° C.), incubated at 37° C. for 10 minutes and centrifuged twice more. The final pellet was resuspended in the same buffer at a concentration of 1.5 mL/g tissue.
Non-specific binding was measured in the presence of 30 μM sulpiride. Assays were performed in triplicate.
The radioactivity retained on the filters was then determined in a liquid scintillation counter (Packard Tri-Carb 1600 TR). For these receptors were also determined IC50 and Ki parameters.

[1] = Table 12, Cheng-Prusoff, read-out: Ki
[2] = Table 12, read-out: -log IC50 (converted)
[3] = DU-145, phenylephrine 3 μM + test substance 50 nM
[4] = Table 6, Cheng-Prusoff, read-out: Ki

Chain of D2-Like receptors (P61169 whole entry): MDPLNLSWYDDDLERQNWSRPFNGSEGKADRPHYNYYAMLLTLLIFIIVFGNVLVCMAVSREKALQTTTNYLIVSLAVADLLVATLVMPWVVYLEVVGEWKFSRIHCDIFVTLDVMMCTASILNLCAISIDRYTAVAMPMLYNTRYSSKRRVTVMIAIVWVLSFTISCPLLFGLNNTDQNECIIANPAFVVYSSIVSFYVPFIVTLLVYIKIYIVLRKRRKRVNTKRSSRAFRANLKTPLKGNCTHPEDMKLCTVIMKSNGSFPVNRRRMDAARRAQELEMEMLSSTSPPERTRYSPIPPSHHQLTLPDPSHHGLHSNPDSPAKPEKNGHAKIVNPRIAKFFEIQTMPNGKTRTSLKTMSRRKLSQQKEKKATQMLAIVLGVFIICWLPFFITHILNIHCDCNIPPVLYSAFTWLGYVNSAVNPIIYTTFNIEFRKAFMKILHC

Structure (SMILES) | IC50 (α2A receptors) [nM] | Ki (α2A receptors) [nM] | Ki (D2-Like receptors) [nM] | log IC50 (M) (α2A receptors; Table 6) | Ki (α2A receptors; [4]) [nM] | -log IC50 (M) (D2-Like receptors) | further results
COc1cccc(CCN2CCN(c3ccccc3OC)CC2)c1 [LDT 3] |  |  |  |  |  |  | Ki (α2A receptors; [1]): 930 nM; IC50 (α2A receptors; [2]): 1100 nM; Proliferation percentage in relation to basel (100%) in the presence of LDT's, α1D (α1D receptors; DU-145, phenylephrine 3 μM + test substance 500 nM): 99.2 ± 5.8^a %; inhibition of the effect of the α1D receptors stimulus on proliferation (α1D receptors): inhibited the effect
COc1ccc(CCN2CCN(c3ccccc3OC)CC2)cc1OC [LDT 5] | 295 | 240 | 100 |  |  |  | Proliferation percentage in relation to basel (100%) in the presence of LDT's, α1D (α1D receptors; [3]): 117.3 ± 8.9%
CCCCCN1CCN(c2ccccc2OC)CC1 [LDT 65] | 2510 | 1500 |  |  |  |  | 
CCOc1ccccc1N1CCN(CCc2ccc3c(c2)OCO3)CC1 [LDT 8] |  |  |  |  |  |  | Ki (α2A receptors; [1]): 550 nM; IC50 (α2A receptors; [2]): 603 nM; Proliferation percentage in relation to basel (100%) in the presence of LDT's, α1D (α1D receptors; DU-145, phenylephrine 3 μM + test substance 5 nM): 124.05 ± 9.6%
CCCCCCN1CCN(c2ccccc2OC)CC1 [LDT 66] |  |  | 40 | −5.92 ± 0.06 | 800 | 6.92 ± 0.11 | Proliferation percentage in relation to basel (100%) in the presence of LDT's, α1D (α1D receptors; [3]): 76 ± 7.7^a %; inhibition of the effect of the α1D receptors stimulus on proliferation (α1D receptors): inhibited the effect
CCOc1ccccc1N1CCN(CCc2ccc(OC)c(OC)c2)CC1 [LDT 245] | 2000 | 160 |  |  |  |  | 
CCCCCCCN1CCN(c2ccccc2OC)CC1 [LDT 67] |  |  | 9 | −6.10 ± 0.06 | 500 | 7.47 ± 0.07 | 
CCCCCCCCN1CCN(c2ccccc2OC)CC1 [LDT 68] |  |  | 9 | −6.01 ± 0.03 | 600 | 7.49 ± 0.09 | 
